Measured values taken from patent US20220193085A1, “METHODS OF THROMBOPROPHYLAXIS” (JANSSEN PHARMACEUTICALS, INC., priority 2020, published 2022).

Legend:
[1] = UNIVERSE primary efficacy outcome: any thrombotic event (CIAC adjudicated); type: in vivo, pediatric patients; conditions: Part B rivaroxaban N=64, aspirin N=34, up to end of treatment, full analysis set
Source text: This study was a prospective, open-label, active-controlled, multicenter study designed to evaluate the PK and PK/PD profiles, safety, and efficacy of rivaroxaban for thromboprophylaxis in pediatric patients 2 to 8 years of age with single ventricle physiology who have completed the Fontan procedure within 4 months prior to enrollment. The trial was approved by the institutional review board of each participating institution, as well as the appropriate national ethics committee. Written informed consent for trial participation was obtained from the parent or guardian of each patient. An Independent Data Monitoring Committee (IDMC) ensured patients' safety throughout the trial. A Central Independent Adjudication Committee (CIAC) reviewed all efficacy and safety events.
Part B was the randomized, open-label, active-controlled part of the study that evaluated the safety and efficacy of twice daily administration of rivaroxaban compared to ASA (usual standard of care) for thromboprophylaxis for 12 months. Patients randomized to rivaroxaban also had PK and PD assessments.
Primary efficacy outcome: Any thrombotic event, venous or arterial, symptomatic or asymptomatic defined as: • The appearance of a new thrombus within the cardiovascular system on either routine surveillance or clinically indicated imaging, or • The occurrence of a clinical event known to be strongly associated with thrombus (e.g., stroke, pulmonary embolism).
All efficacy outcomes were adjudicated by the CIAC, blinded to assigned treatment.

[2] = human, in vivo
Source text: The methods and products of the invention concern dosages that are clinically proven safe and/or effective. Adverse events that impact whether the inventive dose, dosing regimen, treatment or method with rivaroxaban of the present invention are safe are adverse bleeding events that include, for example, major bleeding. “Major bleeding” as used herein is defined in accordance with ISTH criteria as clinically overt bleeding associated with a decrease in hemoglobin of […], a transfusion of the equivalent of […] of packed red blood cells or whole blood, or bleeding at a critical site, or with fatal outcome. Other adverse events include clinically relevant non-major bleeding and trivial (minimal) bleeding.
The primary safety outcome was ISTH defined major bleeding. Major bleeding was defined as overt bleeding and: […]
1) Associated with a fall in hemoglobin of 2 g/dL or more; or 2) Leading to a transfusion of the equivalent of 2 or more units of packed red blood cells or whole blood in adults; or 3) Occurring in a critical site: intracranial, intraspinal, intraocular, pericardial, intraarticular, intramuscular with compartment syndrome, retroperitoneal; or 4) Contributing to death.
The secondary safety outcomes were: Clinically relevant non-major bleeding and trivial (minimal) bleeding events.

[3] = UNIVERSE adverse events, serious adverse events and treatment discontinuation; type: in vivo, pediatric patients; conditions: Part B rivaroxaban N=64, aspirin N=34
Source text: Other safety outcomes: Any adverse events and serious adverse events (SAES).

[4] = treatment-emergent, safety set, listed as ASA
[5] = up to end of treatment, full analysis set

CC(=O)Oc1ccccc1C(=O)O [Aspirin, acetylsalicylic acid]
All-cause mortality, No. of subjects with event [1]: 0 | Any thrombotic event (primary efficacy outcome), % of subjects [1]: (8.8%) | Arterial/intracardiac thrombosis, subjects n (%) [1]: 0 | Ischemic stroke, % of subjects [1]: (2.9%) | Other thrombosis, subjects n (%) [1]: 0 | Pulmonary embolism, subjects n (%) [1]: 0 | Venous thromboembolism, % of subjects [1]: (5.9%) | Venous thromboembolism, No. of subjects with event [1]: 2/34 | Venous thrombosis, % of subjects [1]: (5.9%) | Any thrombotic event (primary efficacy outcome), % of subjects ([1]; listed as ASA): 9% | CRNM bleeding: GI-Lower, % of subjects [2]: (2.9%) | CRNM bleeding: Gastrointestinal, % of subjects [2]: (2.9%) | CRNM bleeding: Gastrointestinal, subjects n (%) [2]: 1 | CRNM bleeding: Gingival, subjects n (%) [2]: 0 | CRNM bleeding: Hematoma, % of subjects [2]: (2.9%) | CRNM bleeding: Skin, % of subjects [2]: (2.9%) | CRNM bleeding: Subconjunctival, % of subjects [2]: (2.9%) | Clinically relevant non-major (CRNM) bleeding, % of subjects [2]: (8.8%) | Clinically relevant non-major (CRNM) bleeding, No. of subjects with event [2]: 3/34 | Clinically relevant non-major bleeding, % of subjects [2]: (8.8%) | Fall in hemoglobin ≥2 g/dL or transfusion of the equivalent ≥2 units of packed red blood cell or whole blood in adults, No. of subjects with event [2]: 0 | Fatal or critical site bleeding, No. of subjects with event [2]: 0 | Major and clinically relevant non-major bleeding, % of subjects [2]: (8.8%) | Major and clinically relevant non-major bleeding, No. of subjects with event [2]: 3/34 | Major bleeding (primary safety outcome), No. of subjects with event [2]: 0 | Subjects with 1 or more on-treatment bleeding events, % of subjects [2]: (41.2%) | Trivial (minimal) bleeding, % of subjects [2]: (35.3%) | Trivial (minimal) bleeding, No. of subjects with event [2]: 12/34 | Trivial bleeding, % of subjects [2]: (35.3%) | Trivial bleeding: Epistaxis, % of subjects [2]: (8.8%) | Trivial bleeding: Epistaxis, subjects n (%) [2]: 3 | Trivial bleeding: GI-Lower, % of subjects [2]: (2.9%) | Trivial bleeding: GI-Lower, subjects n (%) [2]: 1 | Trivial bleeding: GI-Upper, subjects n (%) [2]: 0 | Trivial bleeding: Gastrointestinal, % of subjects [2]: (2.9%) | Trivial bleeding: Gastrointestinal, subjects n (%) [2]: 1 | Trivial bleeding: Gingival, % of subjects [2]: (2.9%) | Trivial bleeding: Gingival, subjects n (%) [2]: 1 | Trivial bleeding: Hematoma, % of subjects [2]: (5.9%) | Trivial bleeding: Hematoma, subjects n (%) [2]: 2 | Trivial bleeding: Skin, % of subjects [2]: (23.5%) | Trivial bleeding: Vascular Access Site, subjects n (%) [2]: 0 | AEs related to Study Agent, % of subjects ([3]; safety set): (26.5%) | AEs related to Study Agent, n (%) ([3]; safety set): 9 | SAEs related to Study Agent, n (%) ([3]; safety set): 0 | TEAEs resulting in Permanent Discontinuation of Study Agent, n (%) ([3]; safety set): 0 | Adverse event: Pleural Effusion, % of participants ([3]; treatment-emergent, safety set): (6%) | All TEAEs (subjects with 1 or more), % of subjects ([3]; treatment-emergent, safety set): (85.3%) | All TESAEs (subjects with 1 or more serious adverse events), % of subjects ([3]; treatment-emergent, safety set): (23.5%) | Serious adverse event: Infections, % of participants ([3]; treatment-emergent, safety set): (12%) | Serious adverse event: Infections, n (%) ([3]; treatment-emergent, safety set): 4 | Serious adverse event: Pleural Effusion, % of participants ([3]; treatment-emergent, safety set): (6%) | Serious adverse event: Pleural Effusion, n (%) ([3]; treatment-emergent, safety set): 2 | Serious adverse event: Respiratory, Thoracic, and Mediastinal Disorders, % of participants ([3]; treatment-emergent, safety set): (9%) | Serious adverse event: Respiratory, Thoracic, and Mediastinal Disorders, n (%) ([3]; treatment-emergent, safety set): 3 | TEAE: Gastrointestinal Disorders, % of subjects ([3]; treatment-emergent, safety set): (26.5%) | TEAE: Gastrointestinal Disorders, n (%) ([3]; treatment-emergent, safety set): 9 | TEAE: General Disorders and Administration Site Conditions, % of subjects ([3]; treatment-emergent, safety set): (23.5%) | TEAE: General Disorders and Administration Site Conditions, n (%) ([3]; treatment-emergent, safety set): 8 | TEAE: Infections and infestations, % of subjects ([3]; treatment-emergent, safety set): (64.7%) | TEAE: Injury, Poisoning, and Procedural Complications, % of subjects ([3]; treatment-emergent, safety set): (29.4%) | TEAE: Injury, Poisoning, and Procedural Complications, n (%) ([3]; treatment-emergent, safety set): 10 | TEAE: Respiratory, Thoracic, and Mediastinal Disorders, % of subjects ([3]; treatment-emergent, safety set): (26.5%) | TEAE: Respiratory, Thoracic, and Mediastinal Disorders, n (%) ([3]; treatment-emergent, safety set): 9 | TEAE: Skin and Subcutaneous Tissue Disorders, % of subjects ([3]; treatment-emergent, safety set): (26.5%) | TEAE: Skin and Subcutaneous Tissue Disorders, n (%) ([3]; treatment-emergent, safety set): 9 | TEAE: Vascular Disorders, % of subjects ([3]; treatment-emergent, safety set): (2.9%) | TEAE: Vascular Disorders, n (%) ([3]; treatment-emergent, safety set): 1 | Adverse event: Pleural Effusion, n (%) [3, 4]: 2 | All TEAEs (subjects with 1 or more), % of subjects [3, 4]: (85%) | All TEAEs (subjects with 1 or more), n (%) [3, 4]: 29 | All TESAEs (subjects with 1 or more serious adverse events), % of subjects [3, 4]: (24%) | All TESAEs (subjects with 1 or more serious adverse events), n (%) [3, 4]: 8 | TEAE: Gastrointestinal Disorders, % of subjects [3, 4]: (26%) | TEAE: General Disorders and Administration Site Conditions, % of subjects [3, 4]: (24%) | TEAE: Infections and infestations, % of subjects [3, 4]: (65%) | TEAE: Infections and infestations, n (%) [3, 4]: 22 | TEAE: Injury, Poisoning, and Procedural Complications, % of subjects [3, 4]: (29%) | TEAE: Respiratory, Thoracic, and Mediastinal Disorders, % of subjects [3, 4]: (26%) | TEAE: Skin and Subcutaneous Tissue Disorders, % of subjects [3, 4]: (26%) | TEAE: Vascular Disorders, % of subjects [3, 4]: (3%) | SAEs, % of subjects [3, 5]: (23.5%) | SAEs, No. of subjects with event [3, 5]: 8/34
